Holding throughout (test): cells
Holding throughout (type): cell-based

The test system of assay [1] is Hepatoma HepG2. To be noted: cultured 48 h, MTT. The procedure: (§1) A cell strain: Hepatoma HepG2, cervical cancer Hela, lung cancer A549, breast cancer MCF7 cell line and human normal liver cell HL7702 were purchased from Wuhan Boster Biological Technology Co., Ltd.;
(§2) HepG2, Hela, A549, MCF 7 cells in logarithmic growth phase and human normal hepatocytes HL7702 were centrifuged at 1500 rpm for 5 min, and the supernatant was discarded; the cells were digested with a suitable amount of trypsin, and then suspended with a suitable amount of culture medium (HepG2, Hela and HL7702 cells were suspended with penicillin-streptomycin RPMI1640 culture medium containing 10% calf serum, A549 and MCF 7 cells with penicillin-streptomycin high glucose DMEM culture medium containing 10% calf serum, to adjust the cell concentration to 1.5×10^4 cells/well, the cells were seeded in 96-well plates, and the following experimental groups were set:
(§3) 0.10 mL of the cell suspension was added to each well, and incubated at 37° C., 5% CO2 and saturated humidity for 12 h, and the culture medium was discarded when the cell density was nearly 70%. […] 100 μl of 5 mg/ml MTT was added per well, standing for 4 h at 37° C. 100 μl of DMSO was added to each well, followed by shaking on a shaker for 10 min at 37° C., the absorbance (OD) was measured at 492 nm, and the MTT ratio was calculated as the OD value of drug group/OD value of negative control group.

Assay [2] relates to breast cancer MCF7 cell line. To be noted: cultured 48 h, MTT. As for the experimental part: as §1, §2, §3
Assay [3] relates to cervical cancer Hela. As to conditions: cultured 48 h, MTT. As for the experimental part: as §1, §2, §3
The subject of assay [4] is human normal liver cell HL7702. To be noted: human normal hepatocytes HL7702, cultured 48 h, MTT. The procedure: as §1, §2, §3
Assay [5] concerns lung cancer A549. To be noted: cultured 48 h, MTT. As for the experimental part:
as §1, §2, §3

This passage reports IC50 results from patent US11319328B2 (priority 2017, dated 2022).

As for “4β-NH-(2-(5-amino-2-methylphenyl)-4-(3-pyridyl) pyrimidine)-4′-demethylepipodophyllotoxin [Compound 38]”, the concentration for half-maximal inhibition (IC50) in assay [1] was 29.5 ± 3.2 µM; in assay [2], 14.5 ± 3.8 µM; in assay [3] it was 35.1 ± 5.9 µM; in assay [4], over 100 µM; in assay [5] it was 15.5 ± 2 µM.

In the case of “4β-NH-(6-indazolamine)-4′-demethylepipodophyllotoxin [Compound 32]”, the IC50 is 19.4 ± 1.5 µM in assay [1]; 21.4 ± 5.9 µM in assay [2]; 6.4 ± 1.8 µM in assay [3]; 17.7 ± 2.2 µM in assay [4]; 25.6 ± 3.7 µM in assay [5].

Consider “4β-NH-(7-indazolamine)-4′-demethylepipodophyllotoxin [Compound 33]”, for which the IC50 worked out at 22.5 ± 2.6 µM in assay [1]; 16.4 ± 0.9 µM in assay [2]; 34 ± 1.1 µM in assay [3]; 29.8 ± 1.9 µM in assay [4]; 24.5 ± 5 µM in assay [5].

Regarding `COc1cc(C2c3cc4c(cc3C(Nc3cccc5c3C(=O)c3ccccc3C5=O)C3COC(=O)C23)OCO4)cc(OC)c1OC` (stereo not drawn) [Compound 1, 4β-NH-(1-aminoanthraquinone) podophyllotoxin], the IC50 is 0.9 ± 0.05 µM in assay [1]; 0.7 ± 0.01 µM in assay [2]; 0.7 ± 0.1 µM in assay [3]; over 100 µM in assay [4]; 0.2 ± 0.01 µM in assay [5].

As for `COc1cc(C2c3cc4c(cc3C(Nc3ccc5c(c3)C(=O)c3ccccc3C5=O)C3COC(=O)C23)OCO4)cc(OC)c1OC` (stereo not drawn) [Compound 2, 4β-NH-(2-aminoanthraquinone) podophyllotoxin], the IC50 in assay [1] is 9.6 ± 0.8 µM; in assay [2] it was 2.9 ± 0.1 µM; in assay [3] it was 2.5 ± 0.3 µM; in assay [4], over 100 µM; in assay [5], 2.9 ± 0.4 µM.

`COc1cc([C@@H]2c3cc4c(cc3[C@@H](Nc3ccc5c(c3N)C(=O)c3ccccc3C5=O)[C@@H]3COC(=O)[C@H]23)OCO4)cc(OC)c1OC` [Compound 3, 4β-NH-(1,2-diaminoanthraquinone) podophyllotoxin]: the IC50 in assay [1] is 52 ± 8.4 µM; in assay [2] it was 17.5 ± 2.1 µM; in assay [3], 24.6 ± 3.2 µM; in assay [4] it was over 100 µM; in assay [5], over 100 µM.

Turning to `COc1cc(C2c3cc4c(cc3C(Nc3cccc5c3C(=O)c3cccc(N)c3C5=O)C3COC(=O)C23)OCO4)cc(OC)c1OC` (stereo not drawn) [Compound 4, 4β-NH-(1,5-diaminoanthraquinone) podophyllotoxin], the IC50 was 4.7 ± 0.4 µM in assay [1]; 3.4 ± 0.6 µM in assay [2]; 4.6 ± 0.2 µM in assay [3]; over 100 µM in assay [4]; 2.2 ± 0.3 µM in assay [5].

Take `COc1cc([C@@H]2c3cc4c(cc3[C@@H](Nc3ccc5c(c3)C(=O)c3ccc(N)cc3C5=O)[C@@H]3COC(=O)[C@H]23)OCO4)cc(OC)c1OC` [Compound 5, 4β-NH-(2,6-diaminoanthraquinone) podophyllotoxin]: the concentration for half-maximal inhibition (IC50) is 9.1 ± 1.2 µM in assay [1]; over 100 µM in assay [2]; 6.5 ± 0.5 µM in assay [3]; over 100 µM in assay [4]; over 100 µM in assay [5].

With `COc1cc([C@@H]2c3cc4c(cc3[C@@H](Nc3nc(N)nc5ccccc35)[C@@H]3COC(=O)[C@H]23)OCO4)cc(OC)c1OC` [Compound 6, 4β-NH-(2,4-quinazolinediamine) podophyllotoxin], the half-inhibitory concentration (IC50) in assay [1] is over 100 µM; in assay [2], 24.5 ± 4.4 µM; in assay [3], 19.2 ± 1.9 µM; in assay [4], 13.8 ± 1.9 µM; in assay [5], 14.3 ± 2.3 µM.

With `COc1cc(C2c3cc4c(cc3C(Nc3ccc5ncccc5c3)C3COC(=O)C23)OCO4)cc(OC)c1OC` (stereo not drawn) [Compound 7, 4β-NH-(6-aminoquinoline) podophyllotoxin], the half-inhibitory concentration (IC50) in assay [1] was 0.8 ± 0.01 µM; in assay [2], 0.6 ± 0.03 µM; in assay [3] it was 0.7 ± 0.03 µM; in assay [4] it was over 100 µM; in assay [5], 0.3 ± 0.04 µM.

Take `COc1cc([C@@H]2c3cc4c(cc3[C@@H](Nc3cccc5ncccc35)[C@@H]3COC(=O)[C@H]23)OCO4)cc(OC)c1OC` [Compound 8, 4β-NH-(5-aminoquinoline) podophyllotoxin]: the IC50 in assay [1], in assay [2], in assay [3], in assay [4] and in assay [5] was over 100 µM throughout.

As for `COc1cc(C2c3cc4c(cc3C(Nc3cccc5cnccc35)C3COC(=O)C23)OCO4)cc(OC)c1OC` (stereo not drawn) [Compound 9, 4β-NH-(5-aminoisoquinoline) podophyllotoxin], the IC50 in assay [1] is 4.1 ± 1.1 µM; in assay [2], 1.4 ± 0.3 µM; in assay [3] it was 3.1 ± 0.2 µM; in assay [4], 16.3 ± 2.8 µM; in assay [5], 2.3 ± 0.1 µM.

In the case of `COc1cc([C@@H]2c3cc4c(cc3[C@@H](Nc3cccc5cccnc35)[C@@H]3COC(=O)[C@H]23)OCO4)cc(OC)c1OC` [Compound 10, 4β-NH-(8-aminoquinoline) podophyllotoxin], the IC50 in assay [1] was 4.6 ± 0.4 µM; in assay [2] it was 1 ± 0.1 µM; in assay [3], 2.7 ± 0.3 µM; in assay [4], 37 ± 4.8 µM; in assay [5] it was 1.2 ± 0.2 µM.

For `COc1cc([C@@H]2c3cc4c(cc3[C@@H](Nc3cccc5ccc(C)nc35)[C@@H]3COC(=O)[C@H]23)OCO4)cc(OC)c1OC` [Compound 11, 4β-NH-(8-aminoquinaldine) podophyllotoxin], the IC50 was 1.6 ± 0.1 µM in assay [1]; 1 ± 0.2 µM in assay [2]; 1.5 ± 0.1 µM in assay [3]; over 100 µM in assay [4]; 3 ± 0.4 µM in assay [5].

On to `COc1cc(C2c3cc4c(cc3C(Nc3ccc5[nH]ncc5c3)C3COC(=O)C23)OCO4)cc(OC)c1OC` (stereo not drawn) [Compound 12, 4β-NH-(5-indazolamine) podophyllotoxin], for which the IC50 in assay [1] was determined as 0.3 ± 0.02 µM; in assay [2] it was 0.4 ± 0.03 µM; in assay [3], 0.5 ± 0.01 µM; in assay [4], 50 µM; in assay [5] it was 0.2 ± 0.02 µM.

With `COc1cc(C2c3cc4c(cc3C(Nc3ccc5cn[nH]c5c3)C3COC(=O)C23)OCO4)cc(OC)c1OC` (stereo not drawn) [Compound 13, 4β-NH-(6-indazolamine) podophyllotoxin], the half-inhibitory concentration (IC50) in assay [1] is 1.8 ± 0.2 µM; in assay [2], 1.3 ± 0.2 µM; in assay [3], 2.1 ± 0.3 µM; in assay [4], 33.6 ± 1.5 µM; in assay [5], 2.4 ± 0.2 µM.

For the compound `COc1cc([C@@H]2c3cc4c(cc3[C@@H](Nc3cccc5cn[nH]c35)[C@@H]3COC(=O)[C@H]23)OCO4)cc(OC)c1OC` [Compound 14, 4β-NH-(7-indazolamine) podophyllotoxin], the IC50 was 0.9 ± 0.1 µM in assay [1]; 0.4 ± 0.01 µM in assay [2]; 0.9 ± 0.01 µM in assay [3]; 43.3 ± 2.8 µM in assay [4]; 0.5 ± 0.01 µM in assay [5].

Take `COc1cc(C2c3cc4c(cc3C(Nc3ccc5[nH]ccc5c3)C3COC(=O)C23)OCO4)cc(OC)c1OC` (stereo not drawn) [Compound 15, 4β-NH-(5-aminoindole) podophyllotoxin]: the IC50 in assay [1] was 2.5 ± 0.6 µM; in assay [2], 4.8 ± 0.9 µM; in assay [3], 3.8 ± 0.2 µM; in assay [4], 30.5 ± 2.7 µM; in assay [5], 2.2 ± 0.9 µM.

Take `COc1cc(C2c3cc4c(cc3C(Nc3ccc5cc[nH]c5c3)C3COC(=O)C23)OCO4)cc(OC)c1OC` (stereo not drawn) [Compound 16, 4β-NH-(6-aminoindole) podophyllotoxin]: the 50% inhibitory concentration (IC50) in assay [1] was found to be 0.6 ± 0.01 µM; in assay [2] it was 0.3 ± 0.01 µM; in assay [3], 0.4 ± 0.01 µM; in assay [4] it was 140 µM; in assay [5], 0.2 ± 0.02 µM.

For `COc1cc([C@@H]2c3cc4c(cc3[C@@H](Nc3cccc5cc[nH]c35)[C@@H]3COC(=O)[C@H]23)OCO4)cc(OC)c1OC` [Compound 17, 4β-NH-(7-aminoindole) podophyllotoxin], the IC50 turned out to be 1.9 ± 0.2 µM in assay [1]; 0.8 ± 0.1 µM in assay [2]; 0.8 ± 0.1 µM in assay [3]; 38.4 ± 2.6 µM in assay [4]; 1 ± 0.1 µM in assay [5].

Consider `COc1cc(C2c3cc4c(cc3C(Nc3ccccc3-c3nc5ccccc5[nH]3)C3COC(=O)C23)OCO4)cc(OC)c1OC` (stereo not drawn) [Compound 18, 4β-NH-(2-(2-aminophenyl)benzimidazole)-podophyllotoxin], for which the IC50 in assay [1] is 3.6 ± 0.3 µM; in assay [2], 1.7 ± 0.2 µM; in assay [3], 4.8 ± 0.2 µM; in assay [4] it was over 100 µM; in assay [5], 2.8 ± 0.1 µM.

Regarding `COc1cc([C@@H]2c3cc4c(cc3[C@@H](Nc3ccc(C)c(-c5nccc(-c6cccnc6)n5)c3)[C@@H]3COC(=O)[C@H]23)OCO4)cc(OC)c1OC` [Compound 19, 4β-NH-(2-(5-amino-2-methylphenyl)-4-(3-pyridyl)pyrimidine)-podophyllotoxin], the IC50 in assay [1] was 6.6 ± 0.1 µM; in assay [2], 9.5 ± 0.8 µM; in assay [3] it was 4.8 ± 0.4 µM; in assay [4], over 100 µM; in assay [5], 7.7 ± 0.6 µM.

With `COc1cc(C2c3cc4c(cc3C(Nc3cccc5c3C(=O)c3ccccc3C5=O)C3COC(=O)C23)OCO4)cc(OC)c1O` (stereo not drawn) [Compound 20, 4β-NH-(1-aminoanthraquinone)-4′-demethylepipodophyllotoxin], the IC50 in assay [1] was determined as 8.8 ± 2.1 µM; in assay [2] it was 2.3 ± 0.1 µM; in assay [3] it was 8.5 ± 2.1 µM; in assay [4], 53.7 ± 5.3 µM; in assay [5] it was 1.8 ± 0.2 µM.

As a reminder, the IC50 is the midpoint of a concentration-inhibition curve. Low readings indicate higher potency, high ones lower potency.
